Results from patent publication US20240228488A1 (TAKEDA PHARMACEUTICAL COMPANY LIMITED, priority 2021, published 2024).

Tests used:
[1] = molecular target: human activated kallikrein enzyme (Homo sapiens, UniProt P03952); experiment: Plasma kallikrein inhibition, fluorogenic PFR-AMC substrate, 500 pM activated kallikrein format; type: biochemical; details: 500 pM activated kallikrein, 300 uM PFR-AMC, 30 min preincubation, 10 min reaction; read-out: Primary Dose Response Assay: Average EC50
Procedure, shortened: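 Enzyme (500 pM) was preincubated with inhibitor for 30 min at room temperature in 20 mM Tris pH 7.5, 1 mM EDTA, 150 mM NaCl, 0.1% PEG-400 and 0.1% Triton X-100. The reaction was started with 300 uM PFR-AMC, run 10 min, and fluorescence read at 460 nm (380 nm excitation). EC50 derived.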

plasma kallikrein = molecular target: T1, plasma kallikrein (Homo sapiens, UniProt P03952); experiment: Neat human plasma assay, FXIIa contact pathway-activated, PFR-AMC substrate; type: biochemical; details: citrated human plasma 78% final, 10 nM human FXIIa, 100 μM PFR-AMC; read-out: Human Plasma Assay: IC90
T1 construct: from tissue
Procedure, shortened: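 Citrated human plasma (78% final) with compound, contact-activated by 10 nM human FXIIa in pKal buffer pH 7.5, with 100 μM PFR-AMC. Fluorescence (360/480 nm) followed 5 min at room temperature; rates versus concentration fitted by 4-parameter equation for IC50/IC90.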

T1 sequence (P03952 391-638 limits assumed): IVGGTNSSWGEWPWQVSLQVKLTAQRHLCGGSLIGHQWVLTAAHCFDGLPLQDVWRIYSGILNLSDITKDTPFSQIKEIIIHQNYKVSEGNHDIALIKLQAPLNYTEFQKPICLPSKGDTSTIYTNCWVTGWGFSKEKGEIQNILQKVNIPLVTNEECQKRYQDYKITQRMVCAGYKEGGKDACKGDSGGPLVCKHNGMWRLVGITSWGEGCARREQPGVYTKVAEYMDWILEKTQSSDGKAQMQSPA
T1 sequence (P03952 20-390 partner limits assumed): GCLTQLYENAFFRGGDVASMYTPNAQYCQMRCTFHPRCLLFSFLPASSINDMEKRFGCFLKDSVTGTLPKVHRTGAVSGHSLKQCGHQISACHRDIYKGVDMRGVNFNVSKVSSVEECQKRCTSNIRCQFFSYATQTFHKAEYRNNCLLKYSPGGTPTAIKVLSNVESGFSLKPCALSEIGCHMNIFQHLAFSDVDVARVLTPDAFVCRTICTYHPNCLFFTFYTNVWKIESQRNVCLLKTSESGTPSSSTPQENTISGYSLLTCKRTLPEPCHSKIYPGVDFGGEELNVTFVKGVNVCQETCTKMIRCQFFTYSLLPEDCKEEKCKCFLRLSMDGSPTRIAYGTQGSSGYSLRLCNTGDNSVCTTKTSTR
human activated kallikrein enzyme, sequence (P03952 391-638 limits assumed): as the sequence (P03952 391-638 limits assumed) above
human activated kallikrein enzyme, sequence (P03952 20-390 partner limits assumed): as the sequence (P03952 20-390 partner limits assumed) above

For Cc1ccnc([C@H]2C[C@@H]2C(=O)Nc2cc(OCc3cn4cc(C5CC5)cc(N5CC6(COC6)OC5=O)c4n3)nc(C)n2)n1 [Example 553, (1S,2S)-N-(6-((6-cyclopropyl-8-(6-oxo-2,5-dioxa-7-azaspiro[3.4]octan-7-yl)imidazo[1,2-a]pyridin-2-yl)methoxy)-2-methylpyrimidin-4-yl)-2-(4-methylpyrimidin-2-yl)cyclopropane-1-carboxamide], the EC50 [1] was < 1 nM and the IC90 (plasma kallikrein) was < 400 nM.

In the case of Cc1ccnc([C@H]2C[C@@H]2C(=O)Nc2cc(OCc3cn4cc(C5CC5)cc(N5CC(=O)N(C)C5=O)c4n3)nc(C)n2)n1 [Example 555, (1S,2S)-N-(6-((6-cyclopropyl-8-(3-methyl-2,4-dioxoimidazolidin-1-yl)imidazo[1,2-a]pyridin-2-yl)methoxy)-2-methylpyrimidin-4-yl)-2-(4-methylpyrimidin-2-yl)cyclopropane-1-carboxamide], the EC50 [1] is reported as < 1 nM and the IC90 (plasma kallikrein) is reported as 400 to 1500 nM.

For COc1nc(NC(=O)[C@H]2C[C@@H]2c2nccc(C)n2)cc(OCc2cn3cc(C4CC4)cc(N4CC(=O)N(C)C4=O)c3n2)n1 [Example 556, (1S,2S)-N-(6-((6-cyclopropyl-8-(3-methyl-2,4-dioxoimidazolidin-1-yl)imidazo[1,2-a]pyridin-2-yl)methoxy)-2-methoxypyrimidin-4-yl)-2-(4-methylpyrimidin-2-yl)cyclopropane-1-carboxamide], the EC50 [1] was < 1 nM and the IC90 (plasma kallikrein) was 400 to 1500 nM.

CN1C(=O)CN(c2cc(C3CC3)cn3cc(COc4cnnc(NC(=O)[C@H]5C[C@@H]5c5cccc(Cl)c5)c4)nc23)C1=O [Example 557, (1S,2S)-2-(3-chlorophenyl)-N-(5-((6-cyclopropyl-8-(3-methyl-2,4-dioxoimidazolidin-1-yl)imidazo[1,2-a]pyridin-2-yl)methoxy)pyridazin-3-yl)cyclopropane-1-carboxamide] was tested, and the EC50 [1] was < 1 nM and the IC90 (plasma kallikrein) was 400 to 1500 nM.

For Cc1ccnc([C@H]2C[C@@H]2C(=O)Nc2cc(OCc3cn4cc(C5CC5)cc(N5CC(=O)N(C)C5=O)c4n3)cnn2)n1 [Example 558, (1S,2S)-N-(5-((6-cyclopropyl-8-(3-methyl-2,4-dioxoimidazolidin-1-yl)imidazo[1,2-a]pyridin-2-yl)methoxy)pyridazin-3-yl)-2-(4-methylpyrimidin-2-yl)cyclopropane-1-carboxamide], the EC50 [1] was < 1 nM and the IC90 (plasma kallikrein) was < 400 nM.

With Cc1ccnc([C@H]2C[C@@H]2C(=O)Nc2cc(OCc3cn4cc(C5CC5)cc(N5CC(=O)N(C)C5=O)c4n3)c(C)nn2)n1 [Example 560, (1S,2S)-N-(5-((6-cyclopropyl-8-(3-methyl-2,4-dioxoimidazolidin-1-yl)imidazo[1,2-a]pyridin-2-yl)methoxy)-6-methylpyridazin-3-yl)-2-(4-methylpyrimidin-2-yl)cyclopropane-1-carboxamide] the EC50 [1] was < 1 nM and the IC90 (plasma kallikrein) was < 400 nM.

In the case of Cc1ccnc([C@H]2C[C@@H]2C(=O)Nc2cc(OCc3cn4cc(C5CC5)cc(S(C)(=O)=O)c4n3)cnn2)n1 [Example 561, (1S,2S)-N-(5-((6-cyclopropyl-8-(methylsulfonyl)imidazo[1,2-a]pyridin-2-yl)methoxy)pyridazin-3-yl)-2-(4-methylpyrimidin-2-yl)cyclopropane-1-carboxamide], the EC50 [1] is reported as < 1 nM and the IC90 (plasma kallikrein) is reported as < 400 nM.

Cc1ccnc([C@H]2C[C@@H]2C(=O)Nc2cc(OCc3cn4cc(C5CC5)cc(N5CC(=O)N(CC(C)(C)O)C5=O)c4n3)nc(C)n2)n1 [Example 562, (1S,2S)—N-(6-((6-cyclopropyl-8-(3-(2-hydroxy-2-methylpropyl)-2,4-dioxoimidazolidin-1-yl)imidazo[1,2-a]pyridin-2-yl)methoxy)-2-methylpyrimidin-4-yl)-2-(4-methylpyrimidin-2-yl)cyclopropane-1-carboxamide] was tested, and the EC50 [1] was < 1 nM and the IC90 (plasma kallikrein) was 400 to 1500 nM.

In the case of Cc1ccnc([C@H]2C[C@@H]2C(=O)Nc2cc(OCc3cn4cc(C5CC5)cc(N5CC(=O)N(C)C5=O)c4n3)nc(OCCN(C)C)n2)n1 [Example 563, (1S,2S)—N-(6-((6-cyclopropyl-8-(3-methyl-2,4-dioxoimidazolidin-1-yl)imidazo[1,2-a]pyridin-2-yl)methoxy)-2-(2-(dimethylamino)ethoxy)pyrimidin-4-yl)-2-(4-methylpyrimidin-2-yl)cyclopropane-1-carboxamide], the EC50 [1] is reported as < 1 nM and the IC90 (plasma kallikrein) is reported as < 400 nM.

Cc1ccnc([C@H]2C[C@@H]2C(=O)Nc2cc(OCc3cn4cc(C5CC5)cc(N5CC(=O)N(CCN(C)C)C5=O)c4n3)nc(C)n2)n1 [Example 564, (1S,2S)-N-(6-((6-cyclopropyl-8-(3-(2-(dimethylamino)ethyl)-2,4-dioxoimidazolidin-1-yl)imidazo[1,2-a]pyridin-2-yl)methoxy)-2-methylpyrimidin-4-yl)-2-(4-methylpyrimidin-2-yl)cyclopropane-1-carboxamide] was tested, and the EC50 [1] was < 1 nM and the IC90 (plasma kallikrein) was < 400 nM.

With CN1CCN(c2cc(C3CC3)cn3cc(COc4ccnc(NC(=O)[C@H]5C[C@@H]5c5cccc(Cl)c5)c4)nc23)CC1 [Example 565, (1S,2S)-2-(3-chlorophenyl)-N-(4-((6-cyclopropyl-8-(4-methylpiperazin-1-yl)imidazo[1,2-a]pyridin-2-yl)methoxy)pyridin-2-yl)cyclopropane-1-carboxamide] the EC50 [1] was 1 to 10 nM and the IC90 (plasma kallikrein) was 1500 to 10000 nM.

With Cc1ccnc([C@H]2C[C@@H]2C(=O)Nc2cc(OCc3cn4cc(C5CC5)ccc4n3)cnn2)n1 [Example 568, (1S,2S)-N-(5-((6-cyclopropylimidazo[1,2-a]pyridin-2-yl)methoxy)pyridazin-3-yl)-2-(4-methylpyrimidin-2-yl)cyclopropane-1-carboxamide] the EC50 [1] was < 1 nM and the IC90 (plasma kallikrein) was 1500 to 10000 nM.

With Cc1ccnc([C@H]2C[C@@H]2C(=O)Nc2nc(C)nc(OCc3cn4cc(C5CC5)cc(N5CC(=O)N(C)C5=O)c4n3)n2)n1 [Example 573, (1S,2S)—N-(4-((6-cyclopropyl-8-(3-methyl-2,4-dioxoimidazolidin-1-yl)imidazo[1,2-a]pyridin-2-yl)methoxy)-6-methyl-1,3,5-triazin-2-yl)-2-(4-methylpyrimidin-2-yl)cyclopropane-1-carboxamide] the EC50 [1] was < 1 nM and the IC90 (plasma kallikrein) was 400 to 1500 nM.

With CNCc1cc(C2CC2)cn2cc(CNc3ccnc(NC(=O)[C@H]4C[C@@H]4c4cccc(Cl)c4)c3)nc12 [Example 595, (1S,2S)-2-(3-chlorophenyl)-N-(4-(((6-cyclopropyl-8-((methylamino)methyl)imidazo[1,2-a]pyridin-2-yl)methyl)amino)pyridin-2-yl)cyclopropane-1-carboxamide] the EC50 [1] was < 1 nM and the IC90 (plasma kallikrein) was < 400 nM.

With CN(C)CCc1cc(C2CC2)cn2cc(CNc3ccnc(NC(=O)[C@H]4C[C@@H]4c4cccc(Cl)c4)c3)nc12 [Example 598, (1S,2S)-2-(3-chlorophenyl)-N-(4-(((6-cyclopropyl-8-(2-(dimethylamino)ethyl)imidazo[1,2-a]pyridin-2-yl)methyl)amino)pyridin-2-yl)cyclopropane-1-carboxamide] the EC50 [1] was < 1 nM and the IC90 (plasma kallikrein) was < 400 nM.

With COCCN1CCN(c2cc(C3CC3)cn3cc(CNc4ccnc(NC(=O)[C@H]5C[C@@H]5c5cccc(Cl)c5)c4)nc23)CC1 [Example 599, (1S,2S)-2-(3-chlorophenyl)-N-(4-(((6-cyclopropyl-8-(4-(2-methoxyethyl)piperazin-1-yl)imidazo[1,2-a]pyridin-2-yl)methyl)amino)pyridin-2-yl)cyclopropane-1-carboxamide] the EC50 [1] was < 1 nM and the IC90 (plasma kallikrein) was < 400 nM.

In the case of CCOC(=O)CN1CCN(c2cc(C3CC3)cn3cc(CNc4ccnc(NC(=O)[C@H]5C[C@@H]5c5cccc(Cl)c5)c4)nc23)CC1 [Example 600, ethyl 2-(4-(2-(((2-((1S,2S)-2-(3-chlorophenyl)cyclopropane-1-carboxamido)pyridin-4-yl)amino)methyl)-6-cyclopropylimidazo[1,2-a]pyridin-8-yl)piperazin-1-yl)acetate], the EC50 [1] is reported as < 1 nM and the IC90 (plasma kallikrein) is reported as > 48000 nM.

O=C(Nc1cc(NCc2cn3cc(C4CC4)cc(N4CCN(CC5CC5)CC4)c3n2)ccn1)[C@H]1C[C@@H]1c1cccc(Cl)c1 [Example 601, (1S,2S)-2-(3-chlorophenyl)-N-(4-(((6-cyclopropyl-8-(4-(cyclopropylmethyl)piperazin-1-yl)imidazo[1,2-a]pyridin-2-yl)methyl)amino)pyridin-2-yl)cyclopropane-1-carboxamide] was tested, and the EC50 [1] was < 1 nM and the IC90 (plasma kallikrein) was 400 to 1500 nM.

With O=C(O)CN1CCN(c2cc(C3CC3)cn3cc(CNc4ccnc(NC(=O)[C@H]5C[C@@H]5c5cccc(Cl)c5)c4)nc23)CC1 [Example 602, 2-(4-(2-(((2-((1S,2S)-2-(3-chlorophenyl)cyclopropane-1-carboxamido)pyridin-4-yl)amino)methyl)-6-cyclopropylimidazo[1,2-a]pyridin-8-yl)piperazin-1-yl)acetic acid] the EC50 [1] was < 1 nM and the IC90 (plasma kallikrein) was < 400 nM.

O=C(Nc1cc(NCc2cn3cc(C4CC4)cc(N4CCN(CCO)CC4)c3n2)ccn1)[C@H]1C[C@@H]1c1cccc(Cl)c1 [Example 603, (1S,2S)-2-(3-chlorophenyl)-N-(4-(((6-cyclopropyl-8-(4-(2-hydroxyethyl)piperazin-1-yl)imidazo[1,2-a]pyridin-2-yl)methyl)amino)pyridin-2-yl)cyclopropane-1-carboxamide] was tested, and the EC50 [1] was < 1 nM and the IC90 (plasma kallikrein) was < 400 nM.

For O=C(Nc1cc(N(CCO)Cc2cn3cc(C4CC4)ccc3n2)ccn1)[C@H]1C[C@@H]1c1cccc(Cl)c1 [Example 604, (1S,2S)-2-(3-chlorophenyl)-N-(4-(((6-cyclopropylimidazo[1,2-a]pyridin-2-yl)methyl)(2-hydroxyethyl)amino)pyridin-2-yl)cyclopropane-1-carboxamide], the EC50 [1] was 1 to 10 nM and the IC90 (plasma kallikrein) was 10000 to 48000 nM.
